Patent US9562053B2, “Benzo-fused heterocyclic derivatives useful as agonists of GPR120” (Janssen Pharmaceutica NV, priority 2013, dated 2017)

Target: T1, long form of human GPR120 (Homo sapiens, UniProt Q5NUL3)
T1 construct: host or cells: PathHunter CHO-K1 GPR120 β-Arrestin Cell Line
T1 sequence (Q5NUL3 1-377 isoform Q5NUL3-1): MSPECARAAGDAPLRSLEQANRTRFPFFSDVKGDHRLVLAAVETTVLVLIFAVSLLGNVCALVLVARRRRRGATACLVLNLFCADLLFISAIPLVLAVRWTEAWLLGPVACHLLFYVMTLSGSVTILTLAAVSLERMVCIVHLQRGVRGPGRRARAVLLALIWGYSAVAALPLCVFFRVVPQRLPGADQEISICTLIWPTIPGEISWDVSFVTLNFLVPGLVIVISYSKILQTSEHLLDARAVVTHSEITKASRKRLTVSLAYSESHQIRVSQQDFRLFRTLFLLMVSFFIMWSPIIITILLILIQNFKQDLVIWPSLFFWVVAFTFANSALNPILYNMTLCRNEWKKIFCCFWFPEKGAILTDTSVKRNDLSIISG
Assay: Human GPR120 DiscoveRx PathHunter Beta-Arrestin Assay, Procedure β-arrestin A (3000 cells per well)
Assay type: cell-based
Conditions: read-out: GPR120 B-arrestin A EC50
Method in brief: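 PathHunter CHO-K1 cells with long-form receptor, 3000/well, seeded overnight at 37 °C; equilibrated 60 min at 37 °C in HBSS/20 mM HEPES/0.1% BSA, pH 7.4. Compound serial dilutions (25–0.012 μM) added for 90 min at 37 °C, detection 60 min at room temperature, luminescence read; EC50 from % of positive control, Hill slope fixed at 1.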

In the case of `CCc1cc2cc(Cl)c(OCC(C)C)c(COc3ccc(CCC(=O)O)c(C)c3C)c2o1` [Compound 67, 3-(4-{[5-Chloro-2-ethyl-6-(2-methylpropoxy)-1-benzofuran-7-yl]methoxy}-2,3-dimethylphenyl)propanoic acid], the EC50 is reported as 221 nM.
